Data reported in ChEMBL document CHEMBL1909046, “DrugMatrix in vitro pharmacology data”.

Tests used:
[1] = biological target: T1, Polyunsaturated fatty acid lipoxygenase ALOX15 (Oryctolagus cuniculus, UniProt P12530); assay: biochemical; assay type: tissue-based, Reticulocytes; settings: reticulocytes;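 also: inhibition of 15-lipoxygenase enzyme activity measured with linoleic acid as the substrate; in other assays of this panel Not Active means under 50% inhibition at 10 µM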
T1 sequence (P12530 whole entry): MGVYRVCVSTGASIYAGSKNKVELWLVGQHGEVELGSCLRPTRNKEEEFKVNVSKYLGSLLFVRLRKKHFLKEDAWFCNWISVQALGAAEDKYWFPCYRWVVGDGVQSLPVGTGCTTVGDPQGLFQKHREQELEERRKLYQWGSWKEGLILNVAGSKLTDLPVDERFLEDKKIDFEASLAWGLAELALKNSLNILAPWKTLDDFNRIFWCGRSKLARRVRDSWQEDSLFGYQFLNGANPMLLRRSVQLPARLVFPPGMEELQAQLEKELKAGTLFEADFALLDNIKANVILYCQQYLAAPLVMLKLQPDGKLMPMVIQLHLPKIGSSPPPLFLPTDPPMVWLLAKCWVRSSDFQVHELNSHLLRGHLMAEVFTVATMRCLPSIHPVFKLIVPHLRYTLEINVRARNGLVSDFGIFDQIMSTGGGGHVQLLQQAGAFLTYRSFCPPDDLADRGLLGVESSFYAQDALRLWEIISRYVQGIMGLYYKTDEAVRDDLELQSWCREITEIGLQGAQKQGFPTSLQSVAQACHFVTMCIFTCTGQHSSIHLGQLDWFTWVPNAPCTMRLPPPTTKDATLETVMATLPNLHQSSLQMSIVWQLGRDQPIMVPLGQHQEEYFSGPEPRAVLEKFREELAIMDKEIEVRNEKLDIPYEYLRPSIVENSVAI

[2] = biological target: T2, 5-hydroxytryptamine receptor 1A (Rattus norvegicus, UniProt P19327); assay type: cell membranes, CHO-K1, Membrane; settings: cho-k1; also: in other assays of this panel Not Active means under 50% inhibition at 10 µM
T2 sequence (P19327 whole entry): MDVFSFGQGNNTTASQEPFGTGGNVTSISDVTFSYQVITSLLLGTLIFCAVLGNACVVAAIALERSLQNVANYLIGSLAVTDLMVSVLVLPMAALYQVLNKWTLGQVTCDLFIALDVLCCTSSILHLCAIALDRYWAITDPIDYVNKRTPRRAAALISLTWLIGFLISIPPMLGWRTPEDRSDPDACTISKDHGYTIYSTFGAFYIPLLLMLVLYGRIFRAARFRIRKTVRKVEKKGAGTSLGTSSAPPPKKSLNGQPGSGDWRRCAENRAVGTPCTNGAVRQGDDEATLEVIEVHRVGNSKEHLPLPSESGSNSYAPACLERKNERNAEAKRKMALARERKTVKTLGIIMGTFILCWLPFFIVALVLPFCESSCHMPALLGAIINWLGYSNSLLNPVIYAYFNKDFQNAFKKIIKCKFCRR

[3] = biological target: T3, Neuropeptide Y receptor type 1 (Homo sapiens, UniProt P25929); assay type: cell membranes, Membrane; settings: sk-n-mc; also: in other assays of this panel Not Active means under 50% inhibition at 10 µM
T3 sequence (P25929 whole entry): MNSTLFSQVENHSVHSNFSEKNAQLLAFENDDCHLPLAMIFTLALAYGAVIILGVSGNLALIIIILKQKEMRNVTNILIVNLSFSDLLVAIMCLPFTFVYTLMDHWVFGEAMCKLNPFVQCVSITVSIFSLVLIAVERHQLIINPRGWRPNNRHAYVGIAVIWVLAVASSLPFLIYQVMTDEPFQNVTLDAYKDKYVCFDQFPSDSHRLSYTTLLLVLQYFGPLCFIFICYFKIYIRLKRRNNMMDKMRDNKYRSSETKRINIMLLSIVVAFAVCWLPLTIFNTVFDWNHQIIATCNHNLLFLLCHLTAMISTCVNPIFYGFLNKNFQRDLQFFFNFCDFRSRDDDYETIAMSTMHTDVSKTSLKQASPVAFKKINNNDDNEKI

[4] = biological target: T4, Amine oxidase [flavin-containing] A (Homo sapiens, UniProt P21397); assay: DRUGMATRIX: Monoamine Oxidase MAO-A enzyme inhibition (substrate: Kynuramine); parameters: species or system BTI-TN-5B1-4; settings: bti-tn-5b1-4; Not Active = under 50% inhibition at 10 µM
T4 sequence (P21397 whole entry): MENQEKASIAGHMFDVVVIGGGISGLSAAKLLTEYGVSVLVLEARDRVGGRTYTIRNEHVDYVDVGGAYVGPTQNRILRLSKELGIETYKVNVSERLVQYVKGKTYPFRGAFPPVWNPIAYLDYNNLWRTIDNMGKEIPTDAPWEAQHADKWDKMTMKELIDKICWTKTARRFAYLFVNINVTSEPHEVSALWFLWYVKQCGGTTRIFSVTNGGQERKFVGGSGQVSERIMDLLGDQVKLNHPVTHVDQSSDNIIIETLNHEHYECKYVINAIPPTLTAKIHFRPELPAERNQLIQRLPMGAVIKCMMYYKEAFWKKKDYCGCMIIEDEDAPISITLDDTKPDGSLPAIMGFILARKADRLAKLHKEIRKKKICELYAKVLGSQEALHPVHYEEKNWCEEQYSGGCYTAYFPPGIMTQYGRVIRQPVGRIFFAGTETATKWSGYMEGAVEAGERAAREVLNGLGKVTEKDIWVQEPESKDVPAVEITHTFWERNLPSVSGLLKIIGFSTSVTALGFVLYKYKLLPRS

Melanocortin receptor 5 = Melanocortin receptor 5 (Homo sapiens, UniProt P33032); assay type: cell membranes, HEK293, Membrane; settings: hek293; also: in other assays of this panel Not Active means under 50% inhibition at 10 µM
[5] = DRUGMATRIX: Calcium Channel Type L, Phenylalkylamine radioligand binding (ligand: [3H] (-)-Desmethoxyverapamil (D-888)); assay type: cell membranes, Rattus norvegicus, Wistar, Brain, Membrane; settings: Not Active = under 50% inhibition at 10 µM

Sequence of Melanocortin receptor 5 (P33032 whole entry): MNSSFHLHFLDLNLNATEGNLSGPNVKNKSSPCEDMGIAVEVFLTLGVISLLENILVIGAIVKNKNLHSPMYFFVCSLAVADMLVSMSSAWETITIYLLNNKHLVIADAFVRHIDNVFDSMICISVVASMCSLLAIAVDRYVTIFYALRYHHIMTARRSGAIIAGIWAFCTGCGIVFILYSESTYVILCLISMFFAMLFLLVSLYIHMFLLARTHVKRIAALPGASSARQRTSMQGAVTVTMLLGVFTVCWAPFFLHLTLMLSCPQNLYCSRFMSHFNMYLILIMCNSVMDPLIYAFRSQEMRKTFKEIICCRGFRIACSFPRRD

CC[C@H](C)C(=O)O[C@H]1CCC=C2C=C[C@H](C)[C@H](CC[C@@H]3C[C@@H](O)CC(=O)O3)[C@H]21 [MEVASTATIN]
Not Active: IC50 [1] | IC50 [2] | IC50 [3] | IC50 [4] | IC50 (Melanocortin receptor 5) | IC50 [5] | Ki [5]

CS(=O)(=O)c1ccc(C2=C(c3ccccc3)C(=O)OC2)cc1 [ROFECOXIB]
Not Active: IC50 [1] | IC50 [2] | IC50 [3] | IC50 [4] | IC50 (Melanocortin receptor 5) | IC50 [5] | Ki [5]

Cc1cn([C@H]2C=C[C@@H](CO)O2)c(=O)[nH]c1=O [STAVUDINE]
Not Active: IC50 [1] | IC50 [2] | IC50 [3] | IC50 [4] | IC50 (Melanocortin receptor 5) | IC50 [5] | Ki [5]

Nc1nc(N)c2nc(-c3ccccc3)c(N)nc2n1
Not Active: IC50 [1] | IC50 [2] | IC50 [3] | IC50 [4] | IC50 (Melanocortin receptor 5) | IC50 [5] | Ki [5]

Cc1[nH]c(=O)c(C#N)cc1-c1ccncc1 [MILRINONE]
Not Active: IC50 [1] | IC50 [2] | IC50 [3] | IC50 [4] | IC50 (Melanocortin receptor 5) | IC50 [5] | Ki [5]

C[C@]12CCC(=O)C[C@@H]1CC[C@@H]1[C@@H]2CC[C@]2(C)[C@@H](O)CC[C@@H]12 [STANOLONE]
Not Active: IC50 [1] | IC50 [2] | IC50 [3] | IC50 [4] | IC50 (Melanocortin receptor 5) | IC50 [5] | Ki [5]

CC1(C)[C@H](C(=O)O)N2C(=O)C[C@H]2S1(=O)=O [SULBACTAM]
Not Active: IC50 [1] | IC50 [2] | IC50 [3] | IC50 [4] | IC50 (Melanocortin receptor 5) | IC50 [5] | Ki [5]

CCOC(=O)C1=C(C)NC(C)=C(C(=O)OCC)C1c1ccccc1/C=C/C(=O)OC(C)(C)C [LACIDIPINE]
Not Active: IC50 [1] | IC50 [2] | IC50 [3] | IC50 [4] | IC50 (Melanocortin receptor 5) | IC50 [5] | Ki [5]

CC(N)C12CC3CC(CC(C3)C1)C2 (stereo not given) [RIMANTADINE]
Not Active: IC50 [1] | IC50 [2] | IC50 [3] | IC50 [4] | IC50 (Melanocortin receptor 5) | IC50 [5] | Ki [5]

CO[C@@]12[C@H](COC(N)=O)C3=C(C(=O)C(C)=C(N)C3=O)N1C[C@@H]1N[C@@H]12 [MITOMYCIN]
Not Active: IC50 [1] | IC50 [2] | IC50 [3] | IC50 [4] | IC50 (Melanocortin receptor 5) | IC50 [5] | Ki [5]
